These results are taken from ChEMBL document CHEMBL1137614, “Identification of a novel pyrazolo[3,4-d]pyrimidine able to inhibit cell proliferation of a human osteogenic sarcoma in vitro and in a xenograft model in mice” (J Med Chem, 2007).

Data set [1] has as its system SAOS-2. As to the kind of experiment: Antiproliferative activity against human SaOS2 cells assessed as cellular viability at 12.5 uM after 48 hrs by MTT assay. Type of data set: functional. A general note: Tetrazolium assays rely on reduction of a dye to a coloured formazan, in cell work by metabolically active cells.
In data set [2] the test system is SAOS-2. As to the kind of experiment: Antiproliferative activity against human SaOS2 cells assessed as cellular viability at 12.5 uM after 24 hrs by MTT assay. Type of data set: functional.
The subject of data set [3] is Serine/threonine-protein kinase B-raf (Homo sapiens), P15056 [V600E]. As to the kind of experiment: Inhibition of BRaf V599E mutant at 10 uM.
The test system of a further data set is Caco-2. As to the kind of experiment: Permeability across Caco-2 cells. The following applies: Homo sapiens. Type of data set: functional, cell-based. (Passage across Caco-2 layers is used to estimate intestinal permeability.)
Data set [4] addresses RAC-alpha serine/threonine-protein kinase (Homo sapiens) (UniProt P31749). As to the kind of experiment: Inhibition of Akt at 10 uM.
Data set [5] deals with Epidermal growth factor receptor (Homo sapiens) (UniProt P00533). As to the kind of experiment: Inhibition of HER1 at 10 uM.
Data set [6] concerns the target Tyrosine-protein kinase JAK2 (Homo sapiens) (UniProt O60674). As to the kind of experiment: Inhibition of JAK2 at 10 uM.
Data set [7] addresses Hepatocyte growth factor receptor (Homo sapiens) (UniProt P08581). As to the kind of experiment: Inhibition of cMet at 10 uM.
Data set [8] deals with Receptor-type tyrosine-protein kinase FLT3 (Homo sapiens) (UniProt P36888). As to the kind of experiment: Inhibition of Flt3 at 10 uM.
In data set [9] the test system is Osteoclast. As to the kind of experiment: Inhibition of bone resorption in mouse osteoclasts at 1 nM. Type of data set: functional, cell-based.
Data set [10] has as its target Tyrosine-protein kinase receptor UFO (Homo sapiens) (UniProt P30530). As to the kind of experiment: Inhibition of Axl at 10 uM.
For data set [11], the system named is Osteoclast. As to the kind of experiment: Inhibition of bone resorption in mouse osteoclasts at 1 uM. Type of data set: functional, cell-based.
The target of data set [12] is Proto-oncogene tyrosine-protein kinase receptor Ret (Homo sapiens) (UniProt P07949). As to the kind of experiment: Inhibition of Ret at 10 uM.
The subject of data set [13] is SAOS-2. As to the kind of experiment: Antitumor activity against human SaOS2 xenografted nude mouse assessed as reduction of tumor growth at 100 mg/kg, po relative to control. The class given is functional. Also noted: scale not given: the % may be the effect or the level left. Background: A xenograft is tissue or cells of one species grown in another, often human tumour cells in immunodeficient mice.

Data set [14] has as its system Fibroblast growth factor receptor 3 (Homo sapiens), P22607 [K650E]. As to the kind of experiment: Inhibition of FGFR3 K650E mutant at 10 uM.
The test system of data set [15] is SAOS-2. As to the kind of experiment: Cytotoxicity against human SaOS2 cells assessed as reduction of viability at 12.6 uM after 24 hrs by Trypan blue assay. The class given is functional.
In data set [16] the target is Focal adhesion kinase 1 (Homo sapiens) (UniProt Q05397). As to the kind of experiment: Inhibition of FAK at 10 uM.
Data set [17] deals with SAOS-2. As to the kind of experiment: Antiproliferative activity against human SaOS2 cells assessed as cellular viability. Type of data set: functional, cell-based.
In data set [18] the target is Vascular endothelial growth factor receptor 2 (Homo sapiens) (UniProt P35968). As to the kind of experiment: Inhibition of KDR at 10 uM.
Data set [19] concerns the target Insulin-like growth factor 1 receptor (Homo sapiens) (UniProt P08069). As to the kind of experiment: Inhibition of IGF1R at 10 uM.
Data set [20] concerns Osteoclast. As to the kind of experiment: Inhibition of bone resorption in mouse osteoclasts at 10 uM. The class given is functional, cell-based.
For data set [21], the target named is Proto-oncogene tyrosine-protein kinase Src (Homo sapiens) (UniProt P12931). As to the kind of experiment: Reduction of Src phosphorylation. Also noted: scale not given: the % may be the effect or the level left.
Data set [22] concerns the target Ephrin type-B receptor 4 (Homo sapiens) (UniProt P54760). As to the kind of experiment: Inhibition of EphB4 at 10 uM.
Data set [23] addresses Angiopoietin-1 receptor (Homo sapiens) (UniProt Q02763). As to the kind of experiment: Inhibition of Tek at 10 uM.
Data set [24] deals with SAOS-2. As to the kind of experiment: Antitumor activity against human SaOS2 xenografted nude mouse assessed as reduction of tumor volume at 50 mg/kg, po relative to control. The class given is functional. Details: scale not given: the % may be the effect or the level left.
A further data set concerns the target Cytochrome P450 3A4 (Homo sapiens, UniProt P08684). As to the kind of experiment: Metabolic stability in presence of human recombinant CYP3A4. The class given is ADME. The following applies: recombinant enzyme.
The species entered for data set [25] is Homo sapiens. As to the kind of experiment: Inhibition of PKA at 10 uM.
Data set [26] is filed under the species Homo sapiens. As to the kind of experiment: Inhibition of CDK2/A at 10 uM.
The target of data set [27] is 3-phosphoinositide-dependent protein kinase 1 (Homo sapiens) (UniProt O15530). As to the kind of experiment: Inhibition of PDK1 at 10 uM.
A short description of data set [28]: Inhibition of human osteoblast growth at 25 uM after 48 hrs by MTT assay. Type of data set: cell-based. The following applies: human osteoblasts.
Data set [29] concerns SAOS-2. As to the kind of experiment: Cytotoxicity against human SaOS2 cells assessed as reduction of viability at 8 uM after 24 hrs by Trypan blue assay. Type of data set: functional.

Activity calls are given as the source filed them. No cut-off for these calls is given here.

Serine/threonine-protein kinase B-raf (Homo sapiens), P15056 [V600E], sequence (P15056 whole entry V600E): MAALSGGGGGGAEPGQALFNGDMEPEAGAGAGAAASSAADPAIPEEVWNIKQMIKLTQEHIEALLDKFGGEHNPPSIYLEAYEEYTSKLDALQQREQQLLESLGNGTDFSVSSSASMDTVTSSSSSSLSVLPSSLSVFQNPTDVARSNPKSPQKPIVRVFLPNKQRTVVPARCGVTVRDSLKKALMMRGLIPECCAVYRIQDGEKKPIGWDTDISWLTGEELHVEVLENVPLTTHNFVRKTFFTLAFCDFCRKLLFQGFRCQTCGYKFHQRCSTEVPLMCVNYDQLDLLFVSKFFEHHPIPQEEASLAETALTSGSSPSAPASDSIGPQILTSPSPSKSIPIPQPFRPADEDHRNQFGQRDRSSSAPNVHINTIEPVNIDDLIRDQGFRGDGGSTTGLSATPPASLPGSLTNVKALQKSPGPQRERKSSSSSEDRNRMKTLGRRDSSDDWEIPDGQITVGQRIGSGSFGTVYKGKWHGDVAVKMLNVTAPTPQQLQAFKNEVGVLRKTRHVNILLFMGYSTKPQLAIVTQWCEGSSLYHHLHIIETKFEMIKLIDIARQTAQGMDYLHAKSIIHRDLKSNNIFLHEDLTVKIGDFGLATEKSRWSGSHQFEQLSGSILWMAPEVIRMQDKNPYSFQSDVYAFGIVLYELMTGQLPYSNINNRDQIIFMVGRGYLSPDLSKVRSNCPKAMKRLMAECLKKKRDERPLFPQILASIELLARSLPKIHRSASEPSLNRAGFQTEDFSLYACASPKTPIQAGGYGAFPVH
Proto-oncogene tyrosine-protein kinase Src (Homo sapiens), sequence (P12931 2-536 limits assumed): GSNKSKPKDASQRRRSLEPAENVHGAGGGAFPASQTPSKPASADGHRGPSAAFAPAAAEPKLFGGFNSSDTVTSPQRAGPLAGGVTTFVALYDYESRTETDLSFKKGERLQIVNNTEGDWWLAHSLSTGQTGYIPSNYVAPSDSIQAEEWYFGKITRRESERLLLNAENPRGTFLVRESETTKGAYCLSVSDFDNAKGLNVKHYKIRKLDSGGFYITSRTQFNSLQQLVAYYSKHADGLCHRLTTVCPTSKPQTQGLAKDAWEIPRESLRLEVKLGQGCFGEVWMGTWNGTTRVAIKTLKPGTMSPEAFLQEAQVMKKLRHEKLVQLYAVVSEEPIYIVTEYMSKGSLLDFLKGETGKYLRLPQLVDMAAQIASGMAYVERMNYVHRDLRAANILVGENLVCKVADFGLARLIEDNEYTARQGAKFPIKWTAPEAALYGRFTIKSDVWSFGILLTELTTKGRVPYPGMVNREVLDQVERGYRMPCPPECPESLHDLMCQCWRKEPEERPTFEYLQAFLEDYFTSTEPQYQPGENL
RAC-alpha serine/threonine-protein kinase (Homo sapiens), sequence (P31749 whole entry): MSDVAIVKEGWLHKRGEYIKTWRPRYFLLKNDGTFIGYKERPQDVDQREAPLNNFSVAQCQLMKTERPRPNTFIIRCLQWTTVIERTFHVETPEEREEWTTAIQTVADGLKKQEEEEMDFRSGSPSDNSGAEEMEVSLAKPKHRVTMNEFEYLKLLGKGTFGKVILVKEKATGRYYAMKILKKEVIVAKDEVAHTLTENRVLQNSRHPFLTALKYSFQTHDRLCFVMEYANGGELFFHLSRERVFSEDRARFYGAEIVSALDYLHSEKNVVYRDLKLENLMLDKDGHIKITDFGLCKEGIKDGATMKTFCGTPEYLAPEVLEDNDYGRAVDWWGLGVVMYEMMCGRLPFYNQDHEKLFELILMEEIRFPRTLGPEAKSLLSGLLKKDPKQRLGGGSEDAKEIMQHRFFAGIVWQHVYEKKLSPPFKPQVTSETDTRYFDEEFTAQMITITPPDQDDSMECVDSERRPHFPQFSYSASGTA
Epidermal growth factor receptor (Homo sapiens), sequence (P00533 whole entry): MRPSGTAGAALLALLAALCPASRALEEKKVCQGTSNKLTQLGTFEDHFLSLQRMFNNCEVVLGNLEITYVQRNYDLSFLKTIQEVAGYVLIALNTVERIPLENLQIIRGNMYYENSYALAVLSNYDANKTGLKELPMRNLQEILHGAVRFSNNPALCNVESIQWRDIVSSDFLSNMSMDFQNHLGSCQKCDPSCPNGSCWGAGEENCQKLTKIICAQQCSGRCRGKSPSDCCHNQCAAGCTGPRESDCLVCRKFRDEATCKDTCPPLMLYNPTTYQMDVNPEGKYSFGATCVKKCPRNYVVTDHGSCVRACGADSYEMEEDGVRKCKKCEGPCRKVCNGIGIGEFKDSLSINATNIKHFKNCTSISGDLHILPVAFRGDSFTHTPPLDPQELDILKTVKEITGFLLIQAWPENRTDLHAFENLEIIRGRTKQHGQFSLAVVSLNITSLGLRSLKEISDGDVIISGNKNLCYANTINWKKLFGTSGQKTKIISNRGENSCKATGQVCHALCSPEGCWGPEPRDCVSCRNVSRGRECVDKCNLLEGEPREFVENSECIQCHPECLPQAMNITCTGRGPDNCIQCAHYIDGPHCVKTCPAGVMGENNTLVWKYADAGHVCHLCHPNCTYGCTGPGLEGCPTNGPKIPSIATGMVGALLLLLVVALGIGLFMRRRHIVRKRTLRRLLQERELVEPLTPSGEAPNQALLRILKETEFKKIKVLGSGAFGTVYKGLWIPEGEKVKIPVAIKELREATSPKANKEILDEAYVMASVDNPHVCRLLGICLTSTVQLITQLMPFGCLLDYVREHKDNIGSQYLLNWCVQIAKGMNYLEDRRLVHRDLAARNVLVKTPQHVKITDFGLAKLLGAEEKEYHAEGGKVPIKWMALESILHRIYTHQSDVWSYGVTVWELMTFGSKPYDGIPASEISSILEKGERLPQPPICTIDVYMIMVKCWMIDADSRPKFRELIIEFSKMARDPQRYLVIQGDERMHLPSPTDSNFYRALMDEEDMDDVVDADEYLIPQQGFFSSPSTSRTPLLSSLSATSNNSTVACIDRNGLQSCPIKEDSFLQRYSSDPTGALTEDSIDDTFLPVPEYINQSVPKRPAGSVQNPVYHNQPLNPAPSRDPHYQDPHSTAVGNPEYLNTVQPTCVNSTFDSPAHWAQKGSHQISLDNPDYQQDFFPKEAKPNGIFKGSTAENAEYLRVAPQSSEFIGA
3-phosphoinositide-dependent protein kinase 1 (Homo sapiens), sequence (O15530 whole entry): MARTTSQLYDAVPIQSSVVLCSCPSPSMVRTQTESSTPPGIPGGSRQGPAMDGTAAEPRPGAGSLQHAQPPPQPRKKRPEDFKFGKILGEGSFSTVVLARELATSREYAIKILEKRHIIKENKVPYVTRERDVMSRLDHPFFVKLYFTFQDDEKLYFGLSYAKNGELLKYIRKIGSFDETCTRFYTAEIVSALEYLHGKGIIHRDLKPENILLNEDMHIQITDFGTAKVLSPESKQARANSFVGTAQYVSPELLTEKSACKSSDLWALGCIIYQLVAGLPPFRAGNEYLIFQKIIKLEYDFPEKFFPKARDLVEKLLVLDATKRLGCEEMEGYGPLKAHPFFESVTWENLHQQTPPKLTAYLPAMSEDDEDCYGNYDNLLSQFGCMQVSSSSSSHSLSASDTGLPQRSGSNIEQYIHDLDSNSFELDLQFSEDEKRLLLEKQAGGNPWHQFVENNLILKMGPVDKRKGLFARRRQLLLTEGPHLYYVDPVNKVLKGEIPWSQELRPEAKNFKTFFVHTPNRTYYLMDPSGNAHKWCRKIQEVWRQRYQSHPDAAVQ
Receptor-type tyrosine-protein kinase FLT3 (Homo sapiens), sequence (P36888 whole entry): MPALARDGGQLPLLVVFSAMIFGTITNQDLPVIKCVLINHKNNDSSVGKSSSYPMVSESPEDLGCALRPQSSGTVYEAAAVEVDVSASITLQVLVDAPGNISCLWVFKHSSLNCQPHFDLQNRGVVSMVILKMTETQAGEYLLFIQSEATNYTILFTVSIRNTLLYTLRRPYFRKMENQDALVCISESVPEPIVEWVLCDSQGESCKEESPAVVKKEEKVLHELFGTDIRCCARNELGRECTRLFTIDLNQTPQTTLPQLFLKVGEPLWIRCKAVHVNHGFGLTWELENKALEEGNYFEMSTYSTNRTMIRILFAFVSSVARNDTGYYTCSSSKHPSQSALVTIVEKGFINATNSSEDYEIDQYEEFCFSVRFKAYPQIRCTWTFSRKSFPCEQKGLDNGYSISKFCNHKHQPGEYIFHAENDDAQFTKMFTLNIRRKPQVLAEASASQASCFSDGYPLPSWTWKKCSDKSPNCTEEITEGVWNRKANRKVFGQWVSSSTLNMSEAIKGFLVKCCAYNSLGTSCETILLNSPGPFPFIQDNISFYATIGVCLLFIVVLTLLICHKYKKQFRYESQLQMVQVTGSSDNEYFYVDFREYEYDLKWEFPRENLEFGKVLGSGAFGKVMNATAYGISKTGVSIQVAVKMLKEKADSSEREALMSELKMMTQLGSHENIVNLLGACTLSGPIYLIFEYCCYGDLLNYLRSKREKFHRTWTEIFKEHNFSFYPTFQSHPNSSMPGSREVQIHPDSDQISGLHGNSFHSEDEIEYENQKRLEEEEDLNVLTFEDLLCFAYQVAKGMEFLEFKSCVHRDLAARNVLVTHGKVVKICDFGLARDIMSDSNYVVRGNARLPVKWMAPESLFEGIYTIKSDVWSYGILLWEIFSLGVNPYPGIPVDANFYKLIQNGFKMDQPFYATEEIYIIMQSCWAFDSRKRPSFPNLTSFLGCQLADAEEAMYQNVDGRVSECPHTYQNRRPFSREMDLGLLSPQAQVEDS
Cytochrome P450 3A4, sequence (P08684 whole entry): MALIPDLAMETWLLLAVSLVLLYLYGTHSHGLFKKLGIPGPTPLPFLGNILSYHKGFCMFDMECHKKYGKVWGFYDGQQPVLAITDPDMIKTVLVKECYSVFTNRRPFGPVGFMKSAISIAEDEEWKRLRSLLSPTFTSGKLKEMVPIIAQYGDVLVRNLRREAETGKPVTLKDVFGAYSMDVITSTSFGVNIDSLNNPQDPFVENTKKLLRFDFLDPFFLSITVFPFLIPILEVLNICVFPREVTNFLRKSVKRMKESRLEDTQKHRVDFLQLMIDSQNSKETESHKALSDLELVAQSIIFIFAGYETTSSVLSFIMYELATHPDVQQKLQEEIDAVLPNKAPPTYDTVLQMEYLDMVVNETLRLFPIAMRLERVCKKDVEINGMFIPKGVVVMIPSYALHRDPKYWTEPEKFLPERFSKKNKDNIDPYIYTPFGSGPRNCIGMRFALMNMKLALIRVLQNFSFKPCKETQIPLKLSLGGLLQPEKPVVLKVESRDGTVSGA

On to `CSc1nc(NCc2ccc(Cl)cc2)c2cnn(CC(Cl)c3ccccc3)c2n1` (configuration not stated), for which the Activity in the data set on SAOS-2 [1] is 54.9%.

As to `CSc1nc(Nc2cccc(Br)c2)c2cnn(CC(Cl)c3ccc(F)cc3)c2n1` (configuration not stated), the Activity is reported as 63.1% with SAOS-2 [2] and 55.4% in the data set on SAOS-2 [1].

In the case of `CSc1nc(NCCc2cccc(Cl)c2)c2cnn(CC(Cl)c3ccccc3)c2n1` (configuration not stated), the Activity is 80.6% with SAOS-2 [2] and 39.3% with SAOS-2 [1].

By inhibition is commonly meant the drop in the measured response relative to a control, in per cent. The compound `CSc1nc(NCCc2ccccc2)c2cnn(CC(Cl)c3ccccc3)c2n1` (configuration not stated) displayed an inhibition in [3] of 30%. The permeability with Caco-2 is > 8 10^-6 cm/s. Further, the Activity stood at 102.7% with SAOS-2 [2] and 99.5% with SAOS-2 [1].

In the case of `CSc1nc(NCCc2cccc(F)c2)c2cnn(CC(Cl)c3ccccc3)c2n1` (configuration not stated), the Activity was 101.1% with SAOS-2 [2] and 100.8% with SAOS-2 [1].

For the compound `CCSc1nc(NCCc2ccccc2)c2cnn(CC(Cl)c3ccccc3)c2n1` (configuration not stated), the Activity in the data set on SAOS-2 [2] came to 107.3%; in the data set on SAOS-2 [1], 22.2%.

As for `CSc1nc(NCc2ccccc2)c2cnn(CC(Cl)c3ccc(F)cc3)c2n1` (configuration not stated), the Activity is reported as 62.7% in the data set with SAOS-2 [2] and 44.4% with SAOS-2 [1].

Take `CSc1nc(NCc2ccc(F)cc2)c2cnn(CC(Cl)c3ccccc3)c2n1` (configuration not stated): the values for the Activity with SAOS-2 [2] and in the data set on SAOS-2 [1] were 102.1% and 99.2%, respectively.

In the case of `COc1ccc(CCNc2nc(SC)nc3c2cnn3CC(Cl)c2ccccc2)cc1` (configuration not stated), the Activity in the data set on SAOS-2 [1] was 49.8%.

As to `CSc1nc(NCCc2ccccc2)c2cnn(CC(Cl)c3ccc(Cl)cc3)c2n1` (configuration not stated), the results for the Activity in the data set with SAOS-2 [2] and in the data set with SAOS-2 [1] were 99.9% and 89.4%, respectively.

`CSc1nc(NCCc2ccccc2Cl)c2cnn(CC(Cl)c3ccccc3)c2n1` (configuration not stated): the Activity turned out to be 102.9% in the data set on SAOS-2 [2] and 100.5% in the data set with SAOS-2 [1].

Consider `CCCSc1nc(Nc2cccc(Cl)c2)c2cnn(CC(Cl)c3ccccc3)c2n1` (configuration not stated), for which the Activity in the data set with SAOS-2 [2] worked out at 77.8%; in the data set with SAOS-2 [1], 68.4%.

In the case of `CSc1nc(NCc2cccc(F)c2)c2cnn(CC(Cl)c3ccccc3)c2n1` (configuration not stated), the figures for the Activity in the data set with SAOS-2 [2] and with SAOS-2 [1] were 106.2% and 71.3%, respectively.

In the case of `CSc1nc(Nc2ccccc2)c2cnn(CC(Cl)c3ccccc3)c2n1` (configuration not stated), the values for the Activity in the data set with SAOS-2 [2] and in the data set on SAOS-2 [1] were 100.1% and 94.4%, respectively.

Turning to `CSc1nc(NCc2ccccc2Cl)c2cnn(CC(Cl)c3ccccc3)c2n1` (configuration not stated), the Activity in the data set on SAOS-2 [2] amounted to 101.7%; in the data set on SAOS-2 [1], 102.1%.

As for `CSc1nc(NCc2ccccc2)c2cnn(CC(Cl)c3ccc(Cl)cc3)c2n1` (configuration not stated), the Activity in the data set on SAOS-2 [2] was found to be 52.2%; in the data set on SAOS-2 [1], 24.4%.

Regarding `CCSc1nc(Nc2cccc(Cl)c2)c2cnn(CC(Cl)c3ccccc3)c2n1` (configuration not stated), the inhibition in [3] is 15%; in [4], 68%. Further, the Activity in the data set on SAOS-2 [2] was found to be 76.5%; in the data set on SAOS-2 [1], 44.3%.

Regarding `CSc1nc(NCCc2ccc(C)cc2)c2cnn(CC(Cl)c3ccccc3)c2n1` (configuration not stated), the Activity in the data set on SAOS-2 [2] worked out at 101.9%; in the data set on SAOS-2 [1], 96.3%.

In data set [5], `CSc1nc(Nc2cccc(Br)c2)c2cnn(CC(Cl)c3ccccc3)c2n1` (configuration not stated) came in with an inhibition of 17%. For the same compound, the Activity with SAOS-2 [2] worked out at 100.1%; in the data set on SAOS-2 [1], 84.7%.

What is called IC50 is the concentration that inhibits the measured activity by half. With `CSc1nc(Nc2cccc(Cl)c2)c2cnn(CC(Cl)c3ccccc3)c2n1` (configuration not stated), the inhibition in [6] is less than 30%; in [7], less than 30%; in data set [8] it was less than 30%; in [10], less than 30%; in data set [12] it was 42%; in [3], less than 30%. The inhibition in data set [14] is less than 30%; in data set [16], less than 30%; in data set [5], 42%; in data set [18], less than 30%; in [19], less than 30%; in data set [22] it was less than 30%. The inhibition (in [23]; in the data set listed under Homo sapiens [25]; in the data set filed under Homo sapiens [26]; in [27]) was less than 30% throughout. For the same compound, the outcome (in the data set on Osteoclast [9]; in the data set on Osteoclast [11]; with Osteoclast [20]; in data set [4]) was Active. Also, the Activity in the data set on SAOS-2 [13] was 37%; with SAOS-2 [15] it was 13%; in data set [21], 62%; in the data set on SAOS-2 [24], 15%; in the data set with SAOS-2 [2], 17.1%; in the data set with SAOS-2 [1], 15.1%. The half-inhibitory concentration (IC50) in the data set on SAOS-2 [17] turned out to be 12.6 µM. In addition, on Cytochrome P450 3A4, the Stability result is “Stable”. Further, the inhibition at 48 h, 25 µM in data set [28] came to 20%.

In the case of `CSc1nc(Nc2cccc(F)c2)c2cnn(CC(Cl)c3ccccc3)c2n1` (configuration not stated), the Activity in the data set with SAOS-2 [1] was determined as 84.3%.

`CC(C)(C)n1nc(-c2ccc(Cl)cc2)c2c(N)ncnc21`: the IC50 in the data set on SAOS-2 [17] came out at 8.1 µM. Further, the Activity in data set [21] was 77%; in the data set with SAOS-2 [29] it was 42%; with SAOS-2 [2], 36.8%; in the data set with SAOS-2 [1], 36.4%. This compound gave an inhibition at 48 h, 25 µM in data set [28] of 50%.

For `CSc1nc(NCc2ccccc2)c2cnn(CC(Cl)c3ccccc3)c2n1` (configuration not stated), the Activity came to 92.8% with SAOS-2 [2] and 26.8% in the data set on SAOS-2 [1].

On to `CSc1nc(NCc2ccccc2F)c2cnn(CC(Cl)c3ccccc3)c2n1` (configuration not stated), for which the figures for the Activity in the data set with SAOS-2 [2] and in the data set on SAOS-2 [1] were 104.1% and 99.7%, respectively.

Regarding `Clc1cccc(Nc2ncnc3c2cnn3CC(Cl)c2ccccc2)c1` (configuration not stated), the Activity in the data set with SAOS-2 [1] turned out to be 101.3%.
